Assay [1] deals with Beta Secretase enzyme (BACE) (Homo sapiens, UniProt P56817). Description: In vitro enzymatic BACE FRET (fluorescence resonance energy transfer) assay. In kind it is biochemical. Conditions: average IC50, enzyme assay; read-out: BACE 1 FRET assay. The method, boiled down:
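A peptide bearing a fluorophore and quencher across the cleavage site serves as substrate at 50 nM. Reactions proceed one hour in acidic acetate buffer (0.05 M, pH 4.2) containing 10% DMSO final and 100 uM genapol, then are terminated with Tris and read fluorimetrically.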

For assay [2], the system named is Aβ40 in conditioned medium of cells stably expressing Amyloid Precursor Protein (APP). Description: In vitro BACE cell-based assay (Aβ40 in conditioned medium, sandwich ELISA). Conditions: read-out: HEK cell assay. The method, boiled down: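 Step two: 10-point compound titration added, starting 100 μM or 10 μM, 0.1% DMSO. Step three: medium Aβ40 measured by ELISA, capture 3 h and detection 2 h at 4° C, TRF read.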
For orientation: An ELISA detects its analyte on a solid surface through an enzyme-linked reagent.

The mark [3] stands for this setting: Homo sapiens, HEK293, average IC50.
Where [4] appears, read: Homo sapiens, HEK293, average IC50, HEK cells.

The values below come from US8883782B2, “Spiro-tetracyclic ring compounds as beta-secretase modulators and methods of use” (Amgen Inc., priority 2010, dated 2014).

Read-outs that look alike come from different tables or passages of the source. Bounds are passed on as bounds.

Chain of Beta Secretase enzyme (BACE) (P56817 46-501, species assumed): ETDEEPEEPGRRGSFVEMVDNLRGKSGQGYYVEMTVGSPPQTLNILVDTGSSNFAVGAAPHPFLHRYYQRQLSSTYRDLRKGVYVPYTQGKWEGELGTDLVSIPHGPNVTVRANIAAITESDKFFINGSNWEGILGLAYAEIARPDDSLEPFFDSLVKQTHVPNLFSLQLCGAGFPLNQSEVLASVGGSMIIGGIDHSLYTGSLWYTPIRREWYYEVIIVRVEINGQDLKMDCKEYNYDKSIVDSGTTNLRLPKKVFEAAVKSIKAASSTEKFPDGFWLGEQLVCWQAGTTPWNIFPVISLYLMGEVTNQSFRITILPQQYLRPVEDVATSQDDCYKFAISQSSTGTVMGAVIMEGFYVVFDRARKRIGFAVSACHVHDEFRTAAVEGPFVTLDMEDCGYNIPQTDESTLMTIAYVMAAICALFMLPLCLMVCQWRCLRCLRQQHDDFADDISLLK

For `NC1=N[C@]2(CO1)c1cc(-c3cccnc3)ccc1Oc1c2cc(C2=CCOCC2)c(F)c1F` (single isomer, unassigned) [Example 1006], the IC50 in assay [1] is 0.0152 µM; in assay [2] (setting [3]), 0.627 µM.
For `NC1=N[C@@]2(CO1)c1cc(-c3cccnc3F)ccc1Oc1c2cc(C2=CCOCC2)nc1F` [Example 130, (S)-3-(3,6-dihydro-2H-pyran-4-yl)-1-fluoro-7-(2-fluoropyridin-3-yl)-5′H-spiro[chromeno[2,3-c]pyridine-5,4′-oxazol]-2′-amine], the figures for the IC50 in assay [1] and in assay [2] (setting [4]) were 0.0004 µM and 0.0021 µM, respectively.
`NC1=NC2(CO1)c1cc(-c3cccnc3F)ccc1Oc1nc(F)c(C3=CCOCC3)cc12` (stereo not shown) [Example 150, 3-(3,6-dihydro-2H-pyran-4-yl)-2-fluoro-7-(2-fluoro-3-pyridinyl)spiro[chromeno[2,3-b]pyridine-5,4′-[1,3]oxazol]-2′-amine]: the IC50 is 0.0026 µM in assay [1] and 0.0482 µM in assay [2] (setting [3]).
Consider `Cc1cc(-c2ccc3c(c2)[C@@]2(COC(N)=N2)c2cc(C4=CCOCC4)ncc2O3)ccc1F` [Example 551, (5S)-3-(3,6-dihydro-2H-pyran-4-yl)-7-(4-fluoro-3-methylphenyl)spiro[chromeno[2,3-c]pyridine-5,4′-[1,3]oxazol]-2′-amine], for which the IC50 worked out at 0.0034 µM in assay [1] and 0.0807 µM in assay [2] (setting [4]).
Consider `CC1(C)C[C@H](c2cnc3c(c2)[C@]2(COC(N)=N2)c2cc(-c4cncc(Cl)c4)ccc2O3)CCO1` [Example 475, (5S)-7-(5-chloro-3-pyridinyl)-3-((4R)-2,2-dimethyltetrahydro-2H-pyran-4-yl)spiro[chromeno[2,3-b]pyridine-5,4′-[1,3]oxazol]-2′-amine], for which the figures for the IC50 in assay [1] and in assay [2] (setting [4]) were 0.0022 µM and 0.0073 µM, respectively.
The matching figures for `C[C@H]1CN(c2cc3c(cn2)Oc2ccc(-c4cccnc4N4CCN(C)[C@@H](C)C4)cc2[C@@]32COC(N)=N2)CCN1C` [Example 530, (5S)-3-((3S)-3,4-dimethyl-1-piperazinyl)-7-(2-((3S)-3,4-dimethyl-1-piperazinyl)-3-pyridinyl)spiro[chromeno[2,3-c]pyridine-5,4′-[1,3]oxazol]-2′-amine]: 3.37 µM and 0.195 µM.
`Cc1cc(-c2ccc3c(c2)[C@@]2(COC(N)=N2)c2cc(-c4ccncc4)ncc2O3)cnc1F` [Example 229, (5S)-7-(6-fluoro-5-methyl-3-pyridinyl)-3-(4-pyridinyl)spiro[chromeno[2,3-c]pyridine-5,4′-[1,3]oxazol]-2′-amine]: the values for the IC50 in assay [1] and in assay [2] (setting [3]) were 0.0128 µM and 0.0604 µM, respectively.
Take `CC(C)(O)C#Cc1c(OCC2(C)COC2)ccc2c1[C@]1(COC(N)=N1)c1cc(-c3cccnc3)ccc1O2` [Example 518, 4-((4S)-2-amino-2′-((3-methyl-3-oxetanyl)methoxy)-7′-(3-pyridinyl)spiro[1,3-oxazole-4,9′-xanthen]-1′-yl)-2-methyl-3-butyn-2-ol]: the values for the IC50 in assay [1] and in assay [2] (setting [4]) were 0.0755 µM and 0.0649 µM, respectively.
The matching figures for `NC1=N[C@@]2(CO1)c1cc(OCc3ccccc3)ccc1Oc1ncc(C3=CCOCC3)cc12` [Example 967, (5S)-7-(benzyloxy)-3-(3,6-dihydro-2H-pyran-4-yl)spiro[chromeno[2,3-b]pyridine-5,4′-[1,3]oxazol]-2′-amine]: 0.0444 µM and 0.463 µM.
The like results for `NC1=N[C@]2(CS1)c1cc(-c3cccnc3)ccc1Oc1ncc(N3CCOCC3)cc12` [Example 601, (5R)-3-(4-morpholinyl)-7-(3-pyridinyl)spiro[chromeno[2,3-b]pyridine-5,4′-[1,3]thiazol]-2′-amine] were, in that order, 2.29 µM and 0.724 µM.
In the case of `C[Si](C)(C)c1cc2c(nc1F)Oc1ccc(-c3cccnc3F)cc1[C@@]21COC(N)=N1` [Example 146, (5S)-2-fluoro-7-(2-fluoro-3-pyridinyl)-3-(trimethylsilyl)spiro[chromeno[2,3-b]pyridine-5,4′-[1,3]oxazol]-2′-amine], the IC50 in assay [1] was 0.0123 µM; in assay [2] (setting [3]), 0.169 µM.
`COC[C@H]1SC(N)=NC12c1cc(-c3cccnc3F)ccc1Oc1cnc(-c3ccnc(F)c3)cc12` (single isomer, unassigned) [Example 1095, (4′S/R,5′S)-7-(2-fluoropyridin-3-yl)-3-(2-fluoropyridin-4-yl)-5′-(methoxymethyl)-5′H-spiro[chromeno[2,3-c]pyridine-5,4′-thiazol]-2′-amine]: the IC50 in assay [1] was found to be 0.573 µM; in assay [2], 5.99 µM.
Take `NC1=N[C@@]2(CO1)c1cc(-c3cncnc3)ccc1Oc1c(F)cc(-n3cccn3)cc12` [Example 692, (4S)-4′-fluoro-2′-(1H-pyrazol-1-yl)-7′-(5-pyrimidinyl)spiro[1,3-oxazole-4,9′-xanthen]-2-amine]: the values for the IC50 in assay [1] and in assay [2] (setting [4]) were 0.0037 µM and 0.074 µM, respectively.
In the case of `CC1(C)CCN(c2cnc3c(c2)[C@]2(COC(N)=N2)c2cc(C#CC4CC4)ccc2O3)C1` [Example 182, (5S)-7-(cyclopropylethynyl)-3-(3,3-dimethyl-1-pyrrolidinyl)spiro[chromeno[2,3-b]pyridine-5,4′-[1,3]oxazol]-2′-amine], the IC50 in assay [1] was 0.0031 µM; in assay [2] (setting [3]), 0.022 µM.
The like results for `NC1=N[C@@]2(CO1)c1cc(-c3cccnc3F)ccc1Oc1cc(F)c(-c3ccncc3)cc12` [Example 321, (4S)-3′-fluoro-7′-(2-fluoro-3-pyridinyl)-2′-(4-pyridinyl)spiro[1,3-oxazole-4,9′-xanthen]-2-amine] were, in that order, 0.0203 µM and 0.0615 µM.
As for `NC1=N[C@@]2(CO1)c1cc(-c3cccnc3F)ccc1Oc1cnc(-c3cncc(F)c3)cc12` [Example 569, (5S)-7-(2-fluoro-3-pyridinyl)-3-(5-fluoro-3-pyridinyl)spiro[chromeno[2,3-c]pyridine-5,4′-[1,3]oxazol]-2′-amine], the IC50 in assay [1] was determined as 0.0012 µM; in assay [2] (setting [4]), 0.0182 µM.
As for “(4S)-4′-fluoro-7′-(2-fluoro-3-pyridinyl)-2′-((3R)-3-methyl-1-pyrrolidinyl)spiro[1,3-oxazole-4,9′-xanthen]-2-amine, (4S)-4′-fluoro-7′-(2-fluoro-3-pyridinyl)-2′-((3S)-3-methyl-1-pyrrolidinyl)spiro[1,3-oxazole-4,9′-xanthen]-2-amine [Example 1055]”, the IC50 in assay [1] was 0.0004 µM; in assay [2] (average IC50), 0.033 µM.
Take `NC1=N[C@]2(CO1)c1cc(-c3cnccc3F)c(F)cc1Oc1ncc(C3=CCOCC3)cc12` [Example 645, (5R)-3-(3,6-dihydro-2H-pyran-4-yl)-8-fluoro-7-(4-fluoro-3-pyridinyl)spiro[chromeno[2,3-b]pyridine-5,4′-[1,3]oxazol]-2′-amine]: the IC50 was 0.0531 µM in assay [1] and 0.291 µM in assay [2] (setting [4]).
As to `NC1=N[C@@]2(CO1)c1cc(-c3cncc(Cl)c3)ccc1Oc1c(F)cc(OCC3CCOCC3)cc12` [Example 211, (4S)-7′-(5-chloro-3-pyridinyl)-4′-fluoro-2′-(tetrahydro-2H-pyran-4-ylmethoxy)spiro[1,3-oxazole-4,9′-xanthen]-2-amine], the IC50 turned out to be 0.0006 µM in assay [1] and 0.0082 µM in assay [2] (setting [3]).
As to `CC1(C#Cc2cnc3c(c2)[C@]2(CSC(N)=N2)c2cc(-c4cncc(F)c4)ccc2O3)COC1` [Example 964, (5S)-7-(5-fluoro-3-pyridinyl)-3-((3-methyl-3-oxetanyl)ethynyl)spiro[chromeno[2,3-b]pyridine-5,4′-[1,3]thiazol]-2′-amine], the IC50 in assay [1] came to 0.0009 µM; in assay [2] (setting [4]), 0.015 µM.
The matching figures for `NC1=N[C@]2(CS1)c1cc(-c3cncnc3)c(F)cc1Oc1c(F)cc(N3CCOCC3)cc12` [Example 887, (4R)-3′,5′-difluoro-7′-(4-morpholinyl)-2′-(5-pyrimidinyl)spiro[1,3-thiazole-4,9′-xanthen]-2-amine]: 4.74 µM and at least 10 µM.
The matching figures for `NC1=N[C@@]2(CS1)c1cc(-c3cccc(Cl)c3)ccc1Oc1cnc(C3=CCOCC3)cc12` [Example 591, (5S)-7-(3-chlorophenyl)-3-(3,6-dihydro-2H-pyran-4-yl)spiro[chromeno[2,3-c]pyridine-5,4′-[1,3]thiazol]-2′-amine]: 0.0007 µM and 0.0733 µM.
For `NC1=N[C@@]2(CC1(F)F)c1cc(-c3cccnc3)ccc1Oc1ncc(-c3cccnc3)cc12` [Example 112, (5S)-4′,4′-difluoro-3,7-di-3-pyridinyl-3′,4′-dihydrospiro[chromeno[2,3-b]pyridine-5,2′-pyrrol]-5′-amine], the IC50 in assay [1] turned out to be 0.0632 µM; in assay [2] (setting [3]), 2.16 µM.
The like results for `Cn1cc(-c2cc3c(cc2F)Oc2ccc(-c4cccc(Cl)c4)cc2[C@@]32COC(N)=N2)cn1` [Example 313, (4S)-7′-(3-chlorophenyl)-3′-fluoro-2′-(1-methyl-1H-pyrazol-4-yl)spiro[1,3-oxazole-4,9′-xanthen]-2-amine] were, in that order, 0.0018 µM and 0.0789 µM.
The like results for `NC1=N[C@@]2(CS1)c1cc(-c3cccnc3F)ccc1Oc1c(F)cc(N3CC4CC3CO4)cc12` (stereo partly drawn) [Example 1078, (4S)-4′-fluoro-7′-(2-fluoro-3-pyridinyl)-2′-(2-oxa-5-azabicyclo[2.2.1]hept-5-yl)spiro[1,3-thiazole-4,9′-xanthen]-2-amine] were, in that order, 0.0004 µM and 0.005 µM.
The matching figures for `NC1=N[C@]2(CO1)c1cc(C3=CCOCC3)cc(F)c1Oc1ccc(-c3cncnc3)c(F)c12` [Example 1042, (4R)-7′-(3,6-dihydro-2H-pyran-4-yl)-1′,5′-difluoro-2′-(5-pyrimidinyl)spiro[1,3-oxazole-4,9′-xanthen]-2-amine]: 0.0135 µM and 0.117 µM.
